Experimental data as given in patent publication US20110262490A1, “POLYMER-AGENT CONJUGATES, PARTICLES, COMPOSITIONS, AND RELATED METHODS OF USE” (priority 2009, published 2011).

Experiment: Tolerability in normal male C57BL/6 non-tumor-bearing mice (Example 47)
Format: in vivo, mouse
Details: for Ataxia: n=5
Procedure: Treatments were administered intravenously on a q7dx2 schedule, i.e., two treatments seven days apart (the first treatment was on Day one). The study ended on Day 14, six days after the 2nd treatment. Blood was collected for complete blood count (CBC) and serum chemistry. Leg muscles were collected so that nerve degeneration could be assessed from the sciatic nerve.

For CC(=O)O[C@@]12CO[C@@H]1C[C@H](O)[C@@]1(C)C(=O)[C@H](O)C3=C(C)[C@@H](OC(=O)[C@H](O)[C@@H](NC(=O)OC(C)(C)C)c4ccccc4)C[C@@](O)([C@@H](OC(=O)c4ccccc4)[C@H]21)C3(C)C [Free docetaxel, docetaxel], the “Body weight above initial on Day 14” value (30 mg/kg IV q7dx2) was 3%, the Mice developing ataxia (30 mg/kg q7dx2) was “no mice” and the Lymphocyte mean (30 mg/kg q7dx2, Day 14) was 4350 cells/μL. The Neutrophil mean (30 mg/kg q7dx2, Day 14) was 556 cells/μL, the “WBC # mean” value (30 mg/kg q7dx2, Day 14) was 5.1 ×1000 cells/μL and the Ataxia (30 mg/kg q7dx2) was 0%. For the same compound, the “Body weight above initial on Day 14” value (45 mg/kg IV q7dx2) was 2%, the Lymphocyte mean (45 mg/kg q7dx2, Day 14) was 6780 cells/μL and the Mice developing ataxia (45 mg/kg q7dx2, Day 14) was “One mouse”. For the same compound, the Neutrophil mean (45 mg/kg q7dx2, Day 14) was 752 cells/μL, the “WBC # mean” value (45 mg/kg q7dx2, Day 14) was 7.8 ×1000 cells/μL and the Ataxia (45 mg/kg q7dx2) was 20%. For the same compound, the “Weight loss after second treatment, by end of study” value (60 mg/kg IV q7dx2, Day 14) was 19%, the Mice developing ataxia (60 mg/kg q7dx2) was “Five out of five mice” and the Lymphocyte mean (60 mg/kg q7dx2, Day 14) was 5590 cells/μL. The Neutrophil mean (60 mg/kg q7dx2, Day 14) was 470 cells/μL, the “WBC # mean” value (60 mg/kg q7dx2, Day 14) was 6.2 ×1000 cells/μL and the Ataxia (60 mg/kg q7dx2) was 100%. The “Effect on serum chemistry parameters” value (q7dx2) was “did not affect any serum chemistry parameter at doses up to 60 mg/kg”.
